According to PMC11900971 (International Journal of Molecular Sciences, 2025):
Read-outs that look alike come from different tables or passages of the source.

Legend:
[1] = test system: Plasmodium falciparum, strain NF54, erythrocytic stages
[2] = test system: Trypanosoma brucei rhodesiense, STIB 900 strain, bloodstream forms
[3] = test system: L6 cells (rat skeletal myoblasts); settings: read-out: Cyt L6 IC50
[4] = test system: Plasmodium falciparum, strain NF54, erythrocytic stages; test: microbe, parasite or virus in culture
[5] = test system: L6 cells (rat skeletal myoblasts); test: cells; settings: L6, read-out: Cyt L6 IC50
[6] = test system: Trypanosoma brucei rhodesiense, STIB 900 strain, bloodstream forms; test: microbe, parasite or virus in culture
[7] = NF54, read-out: P. falc. pIC50 (converted)
[8] = read-out: T. b. rhod. pIC50 (converted)

| Compound | IC50 ([4]; NF54, read-out: P. falc. IC50) [nM] | IC50 [4, 7] [nM] | IC50 ([6]; read-out: T. b. rhod. IC50) [nM] | IC50 [6, 8] [nM] | P. falc. pIC50 [1] | P. falc. pIC50 ([1]; pIC50 = -log10 IC50 (M), P. falciparum NF54) | SI (P. falc.) ([1]; ratio IC50 in L6 cells/IC50 in P. falciparum NF54) | IC50 ([1]; read-out: P. falc. IC50, P. falciparum strain NF54, erythrocytic stages) [nM] | T. b. rhod. pIC50 [2] | SI (T. b. rhod.) ([2]; ratio IC50 in L6 cells/IC50 in T. b. rhodesiense STIB900) | IC50 ([2]; read-out: T. b. rhod. IC50) [nM] | IC50 [3] [nM] | IC50 [5] [nM] |
| --- | --- | --- | --- | --- | --- | --- | --- | --- | --- | --- | --- | --- | --- |
| 2-Methyl-2-{[4-(4,4,4-trifluorobutanamido)phenyl]methyl}-1,4-naphthoquinone [Compound 2n] |  |  |  |  |  | 6.80 | 92 | 159 | 4.14 | 0 | 72200 | 14700 |  |
| CCN(CC)CCCC(C)Nc1ccnc2cc(Cl)ccc12 (centres unmarked) [Chl., chloroquine, reference compound] | 3 | 3.02 |  |  |  |  |  |  |  |  |  |  | 91100 |
| CC1=C(Cc2ccccc2)C(=O)c2ccccc2C1=O [Compound 2a, 2-Benzyl-3-methyl-1,4-naphthoquinone] | 358 | 355 | 62800 | 63100 |  |  |  |  |  |  |  |  | 45000 |
| CC1=C(Cc2ccc(C(F)(F)F)cc2F)C(=O)c2ccccc2C1=O [Compound 2c, 2-{[2-Fluoro-4-(trifluoromethyl)phenyl]methyl}-3-methyl-1,4-naphthoquinone] | 11 | 11.5 | 81400 | 81300 |  |  |  |  |  |  |  |  | 61700 |
| CC1=C(Cc2ccc(F)cc2C(F)(F)F)C(=O)c2ccccc2C1=O [Compound 2d, 2-{[4-Fluoro-2-(trifluoromethyl)phenyl]methyl}-3-methyl-1,4-naphthoquinone] | 20 | 20 | 23200 | 23400 |  |  |  |  |  |  |  |  | 62300 |
| CC1=C(Cc2cc(C(F)(F)F)ccc2F)C(=O)c2ccccc2C1=O [Compound 2e, 2-{[2-Fluoro-5-(trifluoromethyl)phenyl]methyl}-3-methyl-1,4-naphthoquinone] | 6 | 5.75 | 93000 | 93300 |  |  |  |  |  |  |  |  | 43000 |
| CC1=C(Cc2ccc(Cl)nc2)C(=O)c2ccccc2C1=O [Compound 2f, 2-[(6-Chloropyridin-3-yl)methyl]-3-methyl-1,4-naphthoquinone] | 37 | 37.2 | 8270 | 8320 |  |  |  |  |  |  |  |  | 24200 |
| CC1=C(Cc2ccc([N+](=O)[O-])cc2)C(=O)c2ccccc2C1=O [Compound 2g, 2-Methyl-3-[(4-nitrophenyl)methyl]-1,4-naphthoquinone] | 111 | 110 | 28000 | 28200 |  |  |  |  |  |  |  |  | 19100 |
| CC1=C(Cc2ccc([N+](=O)[O-])cc2F)C(=O)c2ccccc2C1=O [Compound 2h, 2-[(2-Fluoro-4-nitrophenyl)methyl]-3-methyl-1,4-naphthoquinone] | 22 | 21.4 | 25500 | 25700 |  |  |  |  |  |  |  |  | 17400 |
| CC1=C(Cc2cc(F)c(F)cc2F)C(=O)c2ccccc2C1=O [Compound 2i, 2-Methyl-3-[(2,4,5-trifluorophenyl)methyl]-1,4-naphthoquinone] | 44 | 44.7 | 30400 | 30200 |  |  |  |  |  |  |  |  | 54500 |
| CC(=O)Nc1ccc(CC2=C(C)C(=O)c3ccccc3C2=O)cc1 [Compound 2j, 2-[(4-Acetamidophenyl)methyl]-3-methyl-1,4-naphthoquinone] | 695 | 692 | 28900 | 28800 |  |  |  |  |  |  |  |  | 16300 |
| CC(=O)Nc1cccc(CC2=C(C)C(=O)c3ccccc3C2=O)c1 [Compound 2k, 2-[(3-Acetamidophenyl)methyl]-3-methyl-1,4-naphthoquinone] | 758 | 759 | 39500 | 39800 |  |  |  |  |  |  |  |  | 16600 |
| CC1=C(Cc2ccc(NC(=O)C(F)(F)F)cc2)C(=O)c2ccccc2C1=O [Compound 2l, 2-Methyl-3-{[4-(2,2,2-trifluoroacetamido)phenyl]methyl}-1,4-naphthoquinone] | 147 | 148 | 23400 | 23400 |  |  |  |  |  |  |  |  | 16100 |
| CC1=C(Cc2cccc(NC(=O)C(F)(F)F)c2)C(=O)c2ccccc2C1=O [Compound 2m, 2-Methyl-3-{[3-(2,2,2-trifluoroacetamido)phenyl]methyl}-1,4-naphthoquinone] | 321 | 324 | 24300 | 24000 |  |  |  |  |  |  |  |  | 13700 |
| CC1=C(Cc2cccc(NC(=O)CCC(F)(F)F)c2)C(=O)c2ccccc2C1=O [Compound 2o, 2-Methyl-3-{[3-(4,4,4-trifluorobutanamido)phenyl]methyl}-1,4-naphthoquinone] | 670 | 631 | 50800 | 51300 | 6.17 |  |  |  |  |  |  |  | 87500 |
| CC1=C(Cc2ccc(F)cc2)C(=O)c2ccccc2C1=O [Compound 2p, 2-[(4-Fluorophenyl)methyl]-3-methyl-1,4-naphthoquinone] | 43 | 42.7 | 33200 | 33100 |  |  |  |  |  |  |  |  | 51100 |
| CC1=C(Cc2ccc(OC(F)(F)F)cc2)C(=O)c2ccccc2C1=O [Compound 2q, 2-Methyl-3-{[4-(trifluoromethoxy)phenyl]methyl}-1,4-naphthoquinone] | 29 | 28.8 | 81600 | 81300 |  |  |  |  |  |  |  |  | 123000 |
| CC1=C(Cc2cccc(OC(F)(F)F)c2)C(=O)c2ccccc2C1=O [Compound 2r, 2-Methyl-3-{[3-(trifluoromethoxy)phenyl]methyl}-1,4-naphthoquinone] | 49 | 49 | 26100 | 26300 |  |  |  |  |  |  |  |  | 80500 |
| CC1=C(Cc2cc(OC(F)(F)F)ccc2F)C(=O)c2ccccc2C1=O [Compound 2s, 2-{[2-Fluoro-5-(trifluoromethoxy)phenyl]methyl}-3-methyl-1,4-naphthoquinone] | 38 | 38 | 75800 | 75900 |  |  |  |  |  |  |  |  | 83200 |
| Nc1nc(N)nc(Nc2ccc([As]3SCC(CO)S3)cc2)n1 (centres unmarked) [Mel., melarsoprol, reference compound] |  |  | 6 | 6.03 |  |  |  |  |  |  |  |  | 24200 |
| COc1cc([C@@H]2c3cc4c(cc3[C@H](O)[C@H]3COC(=O)[C@H]23)OCO4)cc(OC)c1OC [Pod., podophyllotoxin, reference compound] |  |  |  |  |  |  |  |  |  |  |  |  | 24 |

The next lines start with results.

| IC50 ([4]; NF54, read-out: P. falc. IC50) [nM] | IC50 [4, 7] [nM] | IC50 ([6]; read-out: T. b. rhod. IC50) [nM] | IC50 [6, 8] [nM] | P. falc. pIC50 [1] | Compound | P. falc. pIC50 ([1]; pIC50 = -log10 IC50 (M), P. falciparum NF54) | SI (P. falc.) ([1]; ratio IC50 in L6 cells/IC50 in P. falciparum NF54) | IC50 ([1]; read-out: P. falc. IC50, P. falciparum strain NF54, erythrocytic stages) [nM] | T. b. rhod. pIC50 [2] | SI (T. b. rhod.) ([2]; ratio IC50 in L6 cells/IC50 in T. b. rhodesiense STIB900) | IC50 ([2]; read-out: T. b. rhod. IC50) [nM] | IC50 [3] [nM] | IC50 [5] [nM] |
| --- | --- | --- | --- | --- | --- | --- | --- | --- | --- | --- | --- | --- | --- |
| 2760 | 2750 | 318 | 316 |  | O=C1C=C(Cc2ccccc2)C(=O)c2ccccc21 [Compound 4a, 2-Benzyl-1,4-naphthoquinone] |  |  |  |  |  |  |  | 61600 |
| 686 | 692 | 503 | 501 |  | O=C1C=C(Cc2ccc(C(F)(F)F)cc2)C(=O)c2ccccc21 [Compound 4b, 2-{[4-(Trifluoromethyl)phenyl]methyl}-1,4-naphthoquinone] |  |  |  |  |  |  |  | 19200 |
| 1760 | 1780 | 790 | 794 |  | O=C1C=C(Cc2ccc(C(F)(F)F)cc2F)C(=O)c2ccccc21 [Compound 4c, 2-{[2-Fluoro-4-(trifluoromethyl)phenyl]methyl}-1,4-naphthoquinone] |  |  |  |  |  |  |  | 37000 |
| 2310 | 2290 | 1740 | 1740 |  | O=C1C=C(Cc2ccc(F)cc2C(F)(F)F)C(=O)c2ccccc21 [Compound 4d, 2-{[4-Fluoro-2-(trifluoromethyl)phenyl]methyl}-1,4-naphthoquinone] |  |  |  |  |  |  |  | 38400 |
| 2010 | 2000 | 522 | 525 |  | O=C1C=C(Cc2ccc(Cl)nc2)C(=O)c2ccccc21 [Compound 4e, 2-[(6-Chloropyridin-3-yl)methyl]-1,4-naphthoquinone] |  |  |  |  |  |  |  | 3940 |
| 3800 | 3800 | 1880 | 1910 |  | O=C1C(Cc2ccccc2)=C(C(F)(F)F)C(=O)c2ccccc21 [Compound 5a, 2-Benzyl-3-(trifluoromethyl)-1,4-naphthoquinone] |  |  |  |  |  |  |  | 10800 |
| 1460 | 1450 | 1960 | 1950 |  | O=C1C(Cc2ccc(C(F)(F)F)cc2)=C(C(F)(F)F)C(=O)c2ccccc21 [Compound 5b, 2-(Trifluoromethyl)-3-{[4-(trifluoromethyl)phenyl]methyl}-1,4-naphthoquinone] |  |  |  |  |  |  |  | 2000 |
| 2310 | 2290 | 9410 | 9330 |  | O=C1C(Cc2ccc(C(F)(F)F)cc2F)=C(C(F)(F)F)C(=O)c2ccccc21 [Compound 5c, 2-{[2-Fluoro-4-(trifluoromethyl)phenyl]methyl}-3-(trifluoromethyl)-1,4-naphthoquinone] |  |  |  |  |  |  |  | 805 |
